pEC50: −log10 of the molar value.

This test deals with T1, Recombinant human TLR7 (Homo sapiens, UniProt Q9NYK1).
T1 construct: expressed in transfected cells; host or cells: HEK293 cell line stably expressing the pNiFty2-SEAP reporter plasmid; TLR7 in vector pUNO, blasticidin selection
T1 sequence (Q9NYK1 27-1049): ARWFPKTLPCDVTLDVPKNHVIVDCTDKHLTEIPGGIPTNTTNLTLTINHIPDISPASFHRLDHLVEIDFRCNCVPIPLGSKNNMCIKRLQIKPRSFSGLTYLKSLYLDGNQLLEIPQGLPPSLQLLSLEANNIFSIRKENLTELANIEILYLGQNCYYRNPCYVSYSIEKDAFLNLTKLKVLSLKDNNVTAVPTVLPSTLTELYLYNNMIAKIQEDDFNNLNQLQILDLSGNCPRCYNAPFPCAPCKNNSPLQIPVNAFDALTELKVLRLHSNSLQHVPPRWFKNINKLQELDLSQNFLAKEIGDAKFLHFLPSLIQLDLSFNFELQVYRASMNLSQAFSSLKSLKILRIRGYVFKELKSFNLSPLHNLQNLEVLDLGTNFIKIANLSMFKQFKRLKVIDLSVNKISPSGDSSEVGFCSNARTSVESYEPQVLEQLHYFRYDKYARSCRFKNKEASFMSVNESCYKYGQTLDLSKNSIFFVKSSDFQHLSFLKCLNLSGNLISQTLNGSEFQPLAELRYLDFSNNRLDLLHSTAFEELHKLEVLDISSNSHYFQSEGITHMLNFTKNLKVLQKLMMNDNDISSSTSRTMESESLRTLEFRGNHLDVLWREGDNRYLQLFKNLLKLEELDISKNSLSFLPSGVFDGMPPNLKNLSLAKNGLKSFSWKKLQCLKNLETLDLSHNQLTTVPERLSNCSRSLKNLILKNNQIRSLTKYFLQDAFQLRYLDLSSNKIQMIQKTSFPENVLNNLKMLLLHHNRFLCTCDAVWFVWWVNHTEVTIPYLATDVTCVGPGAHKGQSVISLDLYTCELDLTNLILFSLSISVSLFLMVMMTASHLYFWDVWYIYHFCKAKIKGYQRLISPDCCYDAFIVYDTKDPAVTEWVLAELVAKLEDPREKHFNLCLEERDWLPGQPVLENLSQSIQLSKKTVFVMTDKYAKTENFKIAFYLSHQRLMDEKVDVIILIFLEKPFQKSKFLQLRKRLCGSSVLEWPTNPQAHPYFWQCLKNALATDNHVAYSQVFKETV
Put plainly: Human TLR7 Assay (SEAP reporter).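 Further: SEAP driven by an NFkB-responsive composite promoter, pEC50 read at half of each compound's own maximal SEAP induction.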 Format: cell-based. The conditions noted are these: HEK293 cell line stably expressing human TLR7 and pNiFty2-SEAP reporter; SEAP induction after overnight incubation at 37° C., 0.1% (v/v) DMSO.
One may read the pEC50 as the negative decadic logarithm of the EC50, by convention in mol/L. For `CCCCCNc1nc(N)nc(C)c1CCCN(Cc1cccc(CC(=O)OC)c1)C(=O)CN1CCN(CCCN(C)C)CC1` [Example 9, Methyl 2-(3-((N-(3-(2-amino-4-methyl-6-(pentylamino)pyrimidin-5-yl)propyl)-2-(4-(3-(dimethylamino)propyl)piperazin-1-yl)acetamido)methyl)phenyl)acetate], the pEC50 was 5.40.

In the case of `CCCCCNc1nc(N)nc(C)c1CCCN(Cc1cccc(CC(=O)OC)c1)C(=O)CN1CCCN(C(C)=O)CC1` [Example 8, Methyl 2-(3-((2-(4-acetyl-1,4-diazepan-1-yl)-N-(3-(2-amino-4-methyl-6-(pentylamino)pyrimidin-5-yl)propyl)acetamido)methyl)phenyl)acetate], the pEC50 is 5.60.

Take `CCCCNc1nc(N)nc(C)c1Cc1ccc(CC(=O)OCC2CCN(C)CC2)cc1OC` [Example 72, (1-Methylpiperidin-4-yl)methyl 2-(4-((2-amino-4-(butylamino)-6-methylpyrimidin-5-yl)methyl)-3-methoxyphenyl)acetate]: the pEC50 is 7.80.

For `CCCCCNc1nc(N)nc(C)c1Cc1ccc(CC(=O)OCCCN2CCOCC2)cc1` [Example 58, 3-Morpholinopropyl 2-(4-((2-amino-4-methyl-6-(pentylamino)pyrimidin-5-yl)methyl)phenyl)acetate], the pEC50 was 6.90.

Take `CCCCNc1nc(N)nc(C)c1Cc1ccc(CC(=O)OCCCCO)cc1OC` [Example 91, 4-Hydroxybutyl 2-(4-((2-amino-4-(butylamino)-6-methylpyrimidin-5-yl)methyl)-3-methoxyphenyl)acetate]: the pEC50 was 7.70.

As for `CCCCNc1nc(N)nc(C)c1Cc1cc(CC(=O)OC)ccc1OC` [Example 98, Methyl 2-(3-((2-amino-4-(butylamino)-6-methylpyrimidin-5-yl)methyl)-4-methoxyphenyl)acetate], the negative logarithm of the EC50 (pEC50) was 7.30.

Turning to `CCC[C@@H](CO)Nc1nc(N)nc(C)c1Cc1ccc(CC(=O)OC)cc1` [Example 43, (S)-Methyl 2-(4-((2-amino-4-(1-hydroxypentan-2-ylamino)-6-methylpyrimidin-5-yl)methyl)phenyl)acetate], the pEC50 is 6.10.

As for `CCCC[C@@H](CO)Nc1nc(N)nc(C)c1Cc1ccc(CC(=O)OC)cc1OC` [Example 32, (S)-Methyl 2-(4-((2-amino-4-(1-hydroxyhexan-2-ylamino)-6-methylpyrimidin-5-yl)methyl)-3-methoxyphenyl)acetate], the pEC50 is 7.30.

For `CCCCCNc1nc(N)nc(C)c1Cc1ccc(CC(=O)OCC2CCNCC2)cc1` [Example 67, Piperidin-4-ylmethyl 2-(4-((2-amino-4-methyl-6-(pentylamino)pyrimidin-5-yl)methyl)phenyl)acetate], the negative-log EC50 (pEC50) was 6.10.

Take `CCCCCNc1nc(N)nc(C)c1Cc1ccc(CC(=O)OCC2CCN(CCOC)CC2)cc1` [Example 62, (1-(2-Methoxyethyl)piperidin-4-yl)methyl 2-(4-((2-amino-4-methyl-6-(pentylamino)pyrimidin-5-yl)methyl)phenyl)acetate]: the pEC50 is 6.70.

Regarding `CCCCCNc1nc(N)nc(C)c1Cc1cc(CC(=O)OC)ccc1O` [Example 39, Methyl 2-(3-((2-amino-4-methyl-6-(pentylamino)pyrimidin-5-yl)methyl)-4-hydroxyphenyl)acetate], the negative logarithm of the EC50 (pEC50) is 7.00.

As for `CCCCNc1nc(N)nc(C)c1Cc1ccc(CC(=O)OCCCO)cc1OC` [Example 93, 3-Hydroxypropyl 2-(4-((2-amino-4-(butylamino)-6-methylpyrimidin-5-yl)methyl)-3-methoxyphenyl)acetate], the pEC50 was 7.70.

With `CCCCCNc1nc(N)nc(C)c1Cc1ccc(CC(=O)OCCCCN2CCCC2)cc1` [Example 61, 4-(Pyrrolidin-1-yl)butyl 2-(4-((2-amino-4-methyl-6-(pentylamino)pyrimidin-5-yl)methyl)phenyl)acetate], the pEC50 was 6.90.

For `CCCCCNc1nc(N)nc(C)c1CCCN(Cc1cccc(CC(=O)OC)c1)S(C)(=O)=O` [Example 13, Methyl 2-(3-((N-(3-(2-amino-4-methyl-6-(pentylamino)pyrimidin-5-yl)propyl)methylsulfonamido)methyl)phenyl)acetate], the pEC50 was 5.60.

Take `CCCCCNc1nc(N)nc(C)c1Cc1cc(CC(=O)OC)ccc1OC` [Example 54, Methyl 2-(3-((2-amino-4-methyl-6-(pentylamino)pyrimidin-5-yl)methyl)-4-methoxyphenyl)acetate]: the pEC50 is 7.10.

As to `CCCCNc1nc(N)nc(C)c1Cc1cc(CC(=O)OCCCCN(C)C)ccc1OC` [Example 97, 4-(Dimethylamino)butyl 2-(3-((2-amino-4-(butylamino)-6-methylpyrimidin-5-yl)methyl)-4-methoxyphenyl)acetate], the pEC50 is 7.50.

With `CCCCCNc1nc(N)nc(C)c1CCCN(Cc1ccc(CC(=O)OC)cc1)C(=O)CN(C)C` [Example 4, Methyl 2-(4-((N-(3-(2-amino-4-methyl-6-(pentylamino)pyrimidin-5-yl)propyl)-2-(dimethylamino)acetamido)methyl)phenyl)acetate], the pEC50 was 6.40.

Take `CCC[C@@H](CO)Nc1nc(N)nc(C)c1Cc1ccc(CC(=O)OC)cc1F` [Example 47, (S)-Methyl 2-(4-((2-amino-4-(1-hydroxypentan-2-ylamino)-6-methylpyrimidin-5-yl)methyl)-3-fluorophenyl)acetate]: the pEC50 is 6.30.

Turning to `CCCCCNc1nc(N)nc(C)c1Cc1ccc(CC(=O)OCCCCN2CCS(=O)(=O)CC2)cc1` [Example 64, 4-(1,1-Dioxidothiomorpholin-4-yl)butyl(4-{[2-amino-4-methyl-6-(pentylamino)pyrimidin-5-yl]methyl}phenyl)acetate], the pEC50 was 5.60.

As for `CCCCNc1nc(N)nc(C)c1Cc1ccc(CC(=O)OCCc2scnc2C)cc1OC` [Example 101, 2-(4-Methylthiazol-5-yl)ethyl 2-(4-((2-amino-4-(butylamino)-6-methylpyrimidin-5-yl)methyl)-3-methoxyphenyl)acetate], the pEC50 is 7.40.

In the case of `CCCCNc1nc(N)nc(C)c1Cc1ccc(CC(=O)OC)cc1O` [Example 77, Methyl 2-(4-((2-amino-4-(butylamino)-6-methylpyrimidin-5-yl)methyl)-3-hydroxyphenyl)acetate], the pEC50 was 7.20.

As to `CCCCCNc1nc(N)nc(C)c1Cc1ccc(OCC(=O)OC)cc1OC` [Example 40, Methyl 2-(4-((2-amino-4-methyl-6-(pentylamino)pyrimidin-5-yl)methyl)-3-methoxyphenoxy)acetate], the pEC50 was 6.90.

For `CCCCCNc1nc(N)nc(C)c1Cc1ccc(CC(=O)OCCCCN(C)C)cc1` [Example 57, 4-(Dimethylamino)butyl 2-(4-((2-amino-4-methyl-6-(pentylamino)pyrimidin-5-yl)methyl)phenyl)acetate], the pEC50 is 6.90.

Take `CCC[C@@H](CCO)Nc1nc(N)nc(C)c1Cc1ccc(CC(=O)OCCCCN2CCN(C)CC2)cc1F` [Example 87, (S)-4-(4-Methylpiperazin-1-yl)butyl 2-(4-((2-amino-4-(1-hydroxyhexan-3-ylamino)-6-methylpyrimidin-5-yl)methyl)-3-fluorophenyl)acetate]: the negative-log EC50 (pEC50) is 7.60.

As for `CCC[C@@H](CCO)Nc1nc(N)nc(C)c1Cc1cc(CC(=O)OC)ccc1F` [Example 42, (S)-Methyl 2-(3-((2-amino-4-(1-hydroxyhexan-3-ylamino)-6-methylpyrimidin-5-yl)methyl)-4-fluorophenyl)acetate], the pEC50 was 6.20.

Turning to `CCCCNc1nc(N)nc(C)c1Cc1ccc(CC(=O)OCCCCN(C)C)cc1O` [Example 102, 4-(Dimethylamino)butyl 2-(4-((2-amino-4-(butylamino)-6-methylpyrimidin-5-yl)methyl)-3-hydroxyphenyl)acetate], the pEC50 is 7.00.

With `CCCCNc1nc(N)nc(C)c1Cc1ccc(CC(=O)OCCCCN2CCCC2)cc1OC` [Example 73, 4-(Pyrrolidin-1-yl)butyl 2-(4-((2-amino-4-(butylamino)-6-methylpyrimidin-5-yl)methyl)-3-methoxyphenyl)acetate], the pEC50 is 8.30.

In the case of `CC[C@H](O)CNc1nc(N)nc(C)c1Cc1ccc(CC(=O)OCC2CCN(C)CC2)cc1` [Example 81, (S)-(1-Methylpiperidin-4-yl)methyl 2-(4-((2-amino-4-(2-hydroxybutylamino)-6-methylpyrimidin-5-yl)methyl)phenyl)acetate], the pEC50 is 6.00.

For the origin of these results see patent publication US8268990B2, “Compounds” (AstraZeneca AB, priority 2007, dated 2012).
